In one assay the test system is 3Y1. Briefly: Growth inhibition of 3Y1 cells (MTT assay). The format is cell-based, rat. As to conditions: read-out: IC50 growth inhibition. Here is the method:
(§1) Cell lines were obtained from the German Collection of Microorganisms and Cell Cultures (DSMZ). Cell lines 3Y1 and M1 (embryonal fibroblasts from 129/Ola × C57BL/6 mice, [30]) were a generous gift from Dr. S. Miyamoto, Fukoka, Japan, and Dr. P. F. Mühlradt, Braunschweig, Germany. All cell lines were cultivated under conditions recommended by the supplier. Growth inhibition was measured in microtiterplates. Aliquots of 120 μl of the suspended cells (50,000/ml) were given to 60 μl of a serial dilution of the inhibitor. After 5 days, growth was determined using the MTT assay.
In general terms: Formazan colour is commonly taken as a measure of viable cells.

A further assay has as its system KB-V1. In words: Growth inhibition of multidrug-resistant KB-V1 cells (MTT assay), with or without verapamil. The format is cell-based. To be noted: 120 h; KB-V1, mdr human cervix carcinoma; without verapamil; MTT after 5 days. The protocol:
The novel antibiotics archazolids and apicularens (Fig. 1) were checked for their impact on the cell growth of a variety of mammalian cell lines from different tissues (Tab. 1). […] Apicularen B was the only exception, with an average IC50 value two orders of magnitude higher. Growth inhibition of the multidrug-resistant cell line KB-V1 was also measured in the presence of verapamil. […] The data in Tab 1. show, that unlike the archazolids, the apicularens are poor substrates of Pgp. To visualize the impact of the antibiotics, PtK2 (potoroo kidney) cells were incubated with the inhibitors and stained for intact acidic lysosomes (Fig. 2). […] The same observation was made with KB-3-1 cells (data not shown). […] Unlike the cell lines listed in Tab. 1, the growth of PtK2 cells was not completely stopped. The same holds true for A-498 cells (human kidney carcinoma). Both cell lines grow epithelial-like. There was obviously a differential reaction of cell lines to V-ATPase inhibitors. For A-431 cells (human epidermoid carcinoma) a dependence on the expression of the EGF receptor was shown.
as §1

The subject of a further assay is M1. Briefly: Growth inhibition of M1 cells (MTT assay). The format is cell-based, mouse. As to conditions: 120 h, read-out: IC50 growth inhibition. The protocol: as §1
The target of assay [1] is T1, V-ATPase holoenzyme from the midgut of the tobacco hornworm (Manduca sexta, UniProt P31403).
T1 construct: purified V-ATPase holoenzyme from the midgut of the tobacco hornworm; from tissue; host or cells: midgut of fifth instar Manduca sexta larvae
In words: Inhibition of purified V-ATPase holoenzyme activity. The format is biochemical. To be noted: for IC50 per mg of protein, purified V-ATPase: equivalent of the half-maximal concentration. Here is the method: (§2) The V-ATPase holoenzyme was purified as published elsewhere. Preparation of highly purified membranes containing Na^+/K^+-ATPase from pig kidney followed the protocol of Jørgensen with the three main steps of differential centrifugation, incubation with SDS in the presence of ATP and sucrose density gradient centrifugation in a fixed angle rotor, and led to a specific enzyme activity which was in the same range as that reported by the authors. The resulting sample was stored frozen at -20°C. To prepare crude membrane extracts, the hearts of three mice were washed three times with an ice-cold buffer of pH 8.1 consisting of 0.25 M sucrose, 5 mM Tris-HCl, 5 mM EDTA, and 10 mM Pefabloc SC (Biomol), homogenized in 5 ml of this buffer and centrifuged at 4°C for 25 min at 233,000 × gmax in a fixed angle rotor. The resulting pellet was resuspended in 5 ml of a buffer of pH 7.5, consisting of 5 mM Tris-MOPS (3-morpholinopropanesulfonic acid), 10 mM NaCl, 10 mM Pefabloc SC, 9.6 mM 2-mercaptoethanol, 0.53 mM EGTA and 0.1 % Triton X-100. After an aliquot for protein determination had been taken, 10% bovine serum albumin (final concentration) was added to the suspension which was then stored on ice until the activity assays were run. Beef heart mitochondria were isolated by differential centrifugation, following the protocol of Smith by using a blender to homogenize the heart mince. The initial homogenization buffer consisted of 250 mM saccharose, 10 mM KH2PO4, 10 mM Tris, 2 mM EGTA, 2 mM MgCl2, pH 7.4, and further isolation procedures were carried out in the same medium without EGTA [24]. Submitochondrial particles were obtained by ultrasonic treatment of the mitochondria.
(§3) Standard V-ATPase assays with a final volume of 160 μl and a pH of 8.1 consisted of 3–4 μg of protein, 50 mM Tris-MOPS, 3 mM 2-mercaptoethanol, 1 mM MgCl2, 20 mM KCl, 0.003% C12E10, 20 mM NaCl, and 3 mM Tris-HCl. After 5 min of pre-incubation at 30°C with or without inhibitors, 1 mM Tris-ATP was added and after incubation for 2 min the reaction was stopped by placing the tube in liquid nitrogen. Assays using Na^+/K^+-ATPase were performed in 160 μl at pH 7.5 and contained 0.5 μg of protein, 50 mM Tris-MOPS, 5 mM imidazole, 0.2 mM EDTA, 4 mM MgCl2, 20 mM KCl and 100 mM NaCl. After 5 min of pre-incubation at 37°C with or without inhibitors, 3 mM Tris-ATP was added and after 1 min of incubation the reaction was stopped by placing the tube in liquid nitrogen. […] After 5 min of pre-incubation at 30°C with or without inhibitors, 1 mM Tris-ATP was added and after an incubation time of 10 min the reaction was stopped by placing the tubes in liquid nitrogen. ATPase assays with submitochondrial particles from beef heart were performed in a final volume of 1 ml and a pH of 8.0. The samples contained 9–12 μg protein, 50 mM Tris, 50 mM KCl and 2.5 mM MgCl2. After 5 min of preincubation with or without inhibitors, 5 mM ATP was added, and after an additional incubation time of 15 min the reaction was stopped by the addition of 0.4 ml of 20 % TCA.
(§4) Inorganic phosphate produced in the assays of V-ATPase, Na^+/K^+-ATPase and mouse heart F-ATPase was measured according the protocol of Wieczorek et al., while the determination of inorganic phosphate produced in the assays of beef heart F-ATPase followed the method of Fiske and Subarrow using ascorbic acid as reducing agent.
Fifth instar larvae of M. sexta (Lepidoptera, Sphingidae), weighing 6–8 g, were reared under long day conditions (16 h of light) at 27°C using a synthetic diet modified according to Bell et al.

Another assay has as its target T2, Na+/K+-ATPase (Sus scrofa, UniProt P05024).
T2 construct: highly purified, Na^+/K^+-ATPase containing plasma membranes from pig kidney; from tissue; host or cells: pig kidney, purified plasma membranes
In words: Inhibition of Na+/K+-ATPase from pig kidney. As to conditions: inhibitor 1 μM. The format is biochemical. Here is the method: as §2, §3, §4

The test system of the next assay is PtK2 cells. Briefly: Inhibition of lysosomal acidification (LysoTracker staining). As to conditions: 4 hours with inhibitor. The format is cell-based, potoroo. Here is the method:
PtK2 (ATCC CCL-56) or KB-3-1 cells were grown on glass coverslips (13 mm diameter) in four-well-plates. Exponentially growing cells were incubated with the inhibitors for 4 hours and stained for lysosomes with 50 nM LysoTracker Red DND-99 and for mitochondria with 75 nM MitoTracker Green FM (both from Molecular Probes) at 37°C for 30 min. The nuclei were stained using Hoechst 33258 (5 μg/ml). The coverslips were mounted upside down in PBS, fixed with nail polish, and observed under the fluorescent microscope.

Assay [2] concerns the target T3, Vo subunit c (Manduca sexta, UniProt P31403).
T3 construct: from tissue; host or cells: midgut of Manduca sexta larvae (purified V-ATPase)
Briefly: Protection of V-ATPase subunit c from photoaffinity labelling by I-concanolide A. The format is binding. As to conditions: pre-incubation 100 μM or 10 μM, 60 min on ice; I-concanolide A 10 μM; UV. Here is the method: Twenty micrograms of the samples were pre-incubated with the inhibitors for 1 h on ice. The labelled I-concanolide A was then added to give a final concentration of 10 μM. Controls were run without effectors. Mixtures with volumes of 40 μl were incubated for an additional 1 h on ice and then treated for 3 min with UV light (366 nm) on ice. After UV irradiation, 10 μl of 5-fold sample buffer was added, the mixture was heated for 45 s at 95°C, cooled on ice, and subjected to Tricine-SDS-PAGE (16.5% T, 3% C separating gel and 10%T, 3% C spacer gel), followed by Coomassie staining. The gels were sealed in plastic wrap before they were exposed to a phosphoscreen for up to 72 h and analyzed with the aid of a phosphoimager (Molecular Dynamics).

For assay [3], the system named is A-594. On the set-up: method as in PMID 10048565. To be noted: A-594, human lung carcinoma; ref [15]; read-out: IC50 growth inhibition; cited from earlier work.
The next assay deals with bacterial growth. To be noted: ref [11],[15],[17]; cited from earlier work.
The subject of assay [4] is A-594. Briefly: Growth inhibition of A-594 cells (MTT assay). The format is cell-based, human. As to conditions: 120 h, read-out: IC50 growth inhibition. Here is the method: as §1
The test system of the next assay is L-929. On the set-up: method as in PMID 12931860. As to conditions: L-929, murine connective tissue; ref [17]; read-out: IC50 growth inhibition; cited from earlier work.
Assay [5] deals with T3, Vo subunit c. Further details: method as in PMID 12186879. As to conditions: previous study; ref [10]; cited from earlier work.
Assay [6] addresses T1, V-ATPase holoenzyme from the midgut of the tobacco hornworm. On the set-up: method as in PMID 12186879. As to conditions: ref [10], cited from earlier work.
Setting [7] is: 120 h, 3Y1, rat embryogenic fibroblast cell line, MTT after 5 days.
The mark [8] stands for this setting: M1, mouse embryogenic fibroblast cell line, MTT after 5 days.
Where [9] appears, read: A-594, human lung carcinoma, MTT after 5 days.

Read-outs that look alike come from different tables or passages of the source.

T1 sequence (P31403 whole entry): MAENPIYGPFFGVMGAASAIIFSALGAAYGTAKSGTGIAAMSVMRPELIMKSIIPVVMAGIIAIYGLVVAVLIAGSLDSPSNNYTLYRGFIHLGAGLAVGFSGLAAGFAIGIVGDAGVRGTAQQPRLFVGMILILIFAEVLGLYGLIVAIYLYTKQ
T3 sequence (P31403 whole entry): as above

Take `CC/C=C\C=C/C(=O)N/C=C/C[C@H]1C[C@H]2C[C@H](O)C[C@H](Cc3cccc(O)c3C(=O)O1)O2` [apicularen A]: the IC50 is 3.2 nM in the assay with 3Y1 (setting [7]); 23 nM in the assay on KB-V1; 1.4 nM in the assay on M1 (setting [8]); around 20 nM in [1] (purified holoenzyme, 3–4 μg protein, pH 8.1, 30°C, read-out: half-maximal inhibition concentration of purified V-ATPase); 0.23 nM in the assay on A-594 [3]. Moreover, the “IC50 per mg of protein, purified V-ATPase” value (shortened to “IC50 per mg of protein”) in assay [1] is “ca. 0.8 nmol per mg of protein”. Also, the “specific activity of Na+/K+-ATPase” value was found to be 17.3 µmol/mg/min on Na+/K+-ATPase (experiment 1, control 19.0) and 13.2 µmol/mg/min at Na+/K+-ATPase (experiment 2, control 15.9). At Na+/K+-ATPase, the “effect on Na+/K+-ATPase activity” value is reported as “only slightly affected”. Also, in the assay with PtK2 cells, the “red LysoTracker staining indicating acidic lysosomes” value is “disappeared”. At Vo subunit c [2], the “labelling of subunit c by I-concanolide A after pre-incubation” value was “did not appear to interfere”. For the same molecule, the “inhibition of bacterial growth” value with bacterial growth is on record as “failed to inhibit”.

For `CNC(=O)O[C@@H](CC(C)C)c1nc([C@H]2OC(=O)/C(C)=C/C/C(C)=C/[C@@H](O)[C@@H](C)\C=C(C)/C=C(C)\C=C\[C@@H](O)[C@H](C)[C@H](OC)/C(C)=C/C=C/[C@@H]2C)cs1` [archazolid A], the IC50 is 0.95 nM in the assay on 3Y1 (Rattus norvegicus, 3Y1, 120 h); 48 nM in the assay with KB-V1; 0.54 nM in the assay with A-594 [4] (Homo sapiens); 0.27 nM in the assay on M1 (Mus musculus, Fibroblast); around 20 nM in assay [1]; 0.81 nM in the assay with L-929. Further, the “IC50 per mg of protein” value in assay [1] is given as “ca. 0.8 nmol per mg of protein”. The “specific activity of Na+/K+-ATPase” value stood at 17.1 µmol/mg/min on Na+/K+-ATPase (experiment 1, control 19.0) and 12.2 µmol/mg/min on Na+/K+-ATPase (experiment 2, control 15.9). At Na+/K+-ATPase, the “effect on Na+/K+-ATPase activity” value is on record as “only slightly affected”. Moreover, the “red LysoTracker staining indicating acidic lysosomes” value in the assay with PtK2 cells is given as “disappeared”. Further, the “labelling of subunit c by I-concanolide A after pre-incubation” value at Vo subunit c [2] is “completely abolished”. The “inhibition of bacterial growth” value in the assay on bacterial growth is “failed to inhibit”.

Turning to `CO/C1=C\C(C)=C\[C@@H](C)[C@@H](O)[C@@H](C)C/C(C)=C/C=C/[C@H](OC)[C@@H]([C@@H](C)[C@@H](O)[C@H](C)[C@@]2(O)C[C@@H](O)[C@H](C)[C@@H](C(C)C)O2)OC1=O` [bafilomycin A1, reference compound], the IC50 with 3Y1 (setting [7]) was 5.6 nM; with KB-V1, 7.2 nM; in the assay on A-594 [4] (setting [9]) it was 0.4 nM; in the assay on M1 (setting [8]), 2.6 nM; in the assay with L-929, 3.2 nM. For the same molecule, the “red LysoTracker staining indicating acidic lysosomes” value in the assay on PtK2 cells was “disappeared”. On Vo subunit c [5], the “labelling of / binding to subunit c” value is “prevented”.

For the molecule `C/C=C/[C@H]1O[C@@](O)([C@@H](C)[C@H](O)[C@H](C)[C@H]2OC(=O)/C(OC)=C/C(C)=C/[C@@H](C)[C@@H](O)[C@@H](CC)[C@@H](O)[C@H](C)C/C(C)=C/C=C/[C@@H]2OC)C[C@@H](O[C@H]2C[C@@H](O)[C@H](OC(N)=O)[C@@H](C)O2)[C@@H]1C` [concanamycin A, reference compound], the IC50 is 1.4 nM in the assay on 3Y1 (setting [7]); 28 nM in the assay with KB-V1; 0.17 nM with A-594 [4] (setting [9]); 0.56 nM in the assay on M1 (setting [8]); 0.23 nM in the assay with L-929; around 10 nM in assay [6] (read-out: half-maximal inhibition concentration of purified V-ATPase). Also, the “specific activity of Na+/K+-ATPase” value at Na+/K+-ATPase (experiment 1, control 19.0) was 16.7 µmol/mg/min; at Na+/K+-ATPase (experiment 2, control 15.9), 12.7 µmol/mg/min. For the same molecule, the “effect on Na+/K+-ATPase activity” value on Na+/K+-ATPase is “slight inhibition of comparable size”. Further, in the assay with PtK2 cells, the “red LysoTracker staining indicating acidic lysosomes” value is “disappeared”. In addition, the “IC50 per mg of protein” value in assay [6] is listed as “ca. 0.5 nmol per mg of protein”. In addition, the “labelling of / binding to subunit c” value at Vo subunit c [5] was “prevented”.
